Assay results from ChEMBL document CHEMBL4680278 (J Med Chem, 2020).

Target: G-protein coupled receptor 55 (Homo sapiens, UniProt Q9Y2T6)
Assay: Activation of recombinant human GPR55 expressed in HEK293 cells assessed as increase in [35S]-GTPgammaS stimulation incubated for 60 min by scintillation counting method
Type: functional, cell-based

Sequence of G-protein coupled receptor 55 (Q9Y2T6 whole entry): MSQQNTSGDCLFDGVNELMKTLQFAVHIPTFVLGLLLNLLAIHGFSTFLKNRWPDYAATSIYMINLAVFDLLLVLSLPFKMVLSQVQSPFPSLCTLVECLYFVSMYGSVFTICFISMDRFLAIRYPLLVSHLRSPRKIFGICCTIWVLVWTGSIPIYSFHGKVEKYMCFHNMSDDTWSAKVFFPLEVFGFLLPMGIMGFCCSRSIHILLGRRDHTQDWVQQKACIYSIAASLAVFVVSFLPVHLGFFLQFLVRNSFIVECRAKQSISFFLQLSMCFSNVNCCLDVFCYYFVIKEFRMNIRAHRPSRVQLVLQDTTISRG

Row | SMILES | EC50
1 | C=C(C)[C@@H]1CCC(C)=C[C@H]1c1c(C)cc(O)cc1O | 2 nM
2 | C=C(C)[C@@H]1CCC(C)=C[C@H]1c1c(O)cc(O)cc1CCCCC | 2 nM
